Each compound was assayed on Human primary T cells (assay: IL-2 ELISA, human primary T cell, anti-CD3+CD28+ (whole cell assay)). Conditions: Homo sapiens, T-cell, 24 h, human primary T cells stimulated with anti-CD3 + anti-CD28, 24 hours.
Format: cell-based
How it was run: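 IL-2 secreted over 24 h at 37° C was quantified by ELISA after plate-bound αCD3 (1 μg/ml) and αCD28 (5 μg/ml) stimulation, or PMA (0.5 ng/ml) with ionomycin (0.1 μM) as counter-screen. Cells were IL-2-starved primary human T cells, expanded from volunteer PBMC and exposed to compound for 1 hr beforehand.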

Compound | IC50 [µM]
CC(=O)N1CCC(Oc2ccc(Nc3ncc(F)c(NC4CC(C)(C)NC(C)(C)C4)n3)cc2OC(F)F)CC1 [III-44, 1-(4-(2-(difluoromethoxy)-4-(5-fluoro-4-(2,2,6,6-tetramethylpiperidin-4-ylamino)pyrimidin-2-ylamino)phenoxy)piperidin-1-yl)ethanone] | 0.5 to 1
CC(=O)N1CCC(Oc2ccc(Nc3ncc(F)c(NC4CC(C)(C)N(C)C(C)(C)C4)n3)cc2OC(F)F)CC1 [III-45, 1-(4-(2-(difluoromethoxy)-4-(5-fluoro-4-(1,2,2,6,6-pentamethylpiperidin-4-ylamino)pyrimidin-2-ylamino)phenoxy)piperidin-1-yl)ethanone] | 0.25 to 0.5
CC1(C)CC(Nc2nc(Nc3ccc(OC(C)(C)CCN4CCCC4)c(F)c3)ncc2F)CC(C)(C)N1 [III-46, 5-fluoro-N2-(3-fluoro-4-(2-methyl-4-(pyrrolidin-1-yl)butan-2-yloxy)phenyl)-N4-(2,2,6,6-tetramethylpiperidin-4-yl)pyrimidine-2,4-diamine] | 0.5 to 1
CN1C(C)(C)CC(Nc2nc(Nc3ccc(OC(C)(C)CCN4CCCC4)c(F)c3)ncc2F)CC1(C)C [III-47, 5-fluoro-N2-(3-fluoro-4-(2-methyl-4-(pyrrolidin-1-yl)butan-2-yloxy)phenyl)-N4-(1,2,2,6,6-pentamethylpiperidin-4-yl)pyrimidine-2,4-diamine] | 0.5 to 1
CC1(C)CC(Nc2nc(Nc3cc(F)c(OC(C)(C)CCN4CCCC4)c(F)c3)ncc2F)CC(C)(C)N1 [III-48, N2-(3,5-difluoro-4-(2-methyl-4-(pyrrolidin-1-yl)butan-2-yloxy)phenyl)-5-fluoro-N4-(2,2,6,6-tetramethylpiperidin-4-yl)pyrimidine-2,4-diamine] | > 1
CN1C(C)(C)CC(Nc2nc(Nc3cc(F)c(OC(C)(C)CCN4CCCC4)c(F)c3)ncc2F)CC1(C)C [III-49, N2-(3,5-difluoro-4-(2-methyl-4-(pyrrolidin-1-yl)butan-2-yloxy)phenyl)-5-fluoro-N4-(1,2,2,6,6-pentamethylpiperidin-4-yl)pyrimidine-2,4-diamine] | > 1
CC1(C)CC(Nc2nc(Nc3ccc(OC4CCN(CCF)CC4)c(OC(F)F)c3)ncc2F)CC(C)(C)N1 [III-50, N2-(3-(difluoromethoxy)-4-(1-(2-fluoroethyl)piperidin-4-yloxy)phenyl)-5-fluoro-N4-(2,2,6,6-tetramethylpiperidin-4-yl)pyrimidine-2,4-diamine] | 0.25 to 0.5
CN1C(C)(C)CC(Nc2nc(Nc3ccc(OC4CCN(CCF)CC4)c(OC(F)F)c3)ncc2F)CC1(C)C [III-51, N2-(3-(difluoromethoxy)-4-(1-(2-fluoroethyl)piperidin-4-yloxy)phenyl)-5-fluoro-N4-(1,2,2,6,6-pentamethylpiperidin-4-yl)pyrimidine-2,4-diamine] | < 0.25
CN1C(C)(C)CC(Nc2nc(Nc3ccc(OC4CCN(Cc5ccccc5)CC4)c(OC(F)F)c3)ncc2F)CC1(C)C [III-52, N2-(4-(1-benzylpiperidin-4-yloxy)-3-(difluoromethoxy)phenyl)-5-fluoro-N4-(1,2,2,6,6-pentamethylpiperidin-4-yl)pyrimidine-2,4-diamine] | 0.25 to 0.5
CC1(C)CC(Nc2nc(Nc3ccc(OC4CCN(CCOCc5ccccc5)CC4)c(F)c3)ncc2F)CC(C)(C)N1 [III-53, N2-(4-(1-(2-(benzyloxy)ethyl)piperidin-4-yloxy)-3-fluorophenyl)-5-fluoro-N4-(2,2,6,6-tetramethylpiperidin-4-yl)pyrimidine-2,4-diamine] | 0.5 to 1
CN1C(C)(C)CC(Nc2nc(Nc3ccc(OC4CCN(CCOCc5ccccc5)CC4)c(F)c3)ncc2F)CC1(C)C [III-54, N2-(4-(1-(2-(benzyloxy)ethyl)piperidin-4-yloxy)-3-fluorophenyl)-5-fluoro-N4-(1,2,2,6,6-pentamethylpiperidin-4-yl)pyrimidine-2,4-diamine] | 0.5 to 1
CC1(C)CC(Nc2nc(Nc3cc(F)c(OC4CCN(CCOCc5ccccc5)CC4)c(F)c3)ncc2F)CC(C)(C)N1 [III-55, N2-(4-(1-(2-(benzyloxy)ethyl)piperidin-4-yloxy)-3,5-difluorophenyl)-5-fluoro-N4-(2,2,6,6-tetramethylpiperidin-4-yl)pyrimidine-2,4-diamine] | 0.5 to 1
CN1C(C)(C)CC(Nc2nc(Nc3cc(F)c(OC4CCN(CCOCc5ccccc5)CC4)c(F)c3)ncc2F)CC1(C)C [III-56, N2-(4-(1-(2-(benzyloxy)ethyl)piperidin-4-yloxy)-3,5-difluorophenyl)-5-fluoro-N4-(1,2,2,6,6-pentamethylpiperidin-4-yl)pyrimidine-2,4-diamine] | 0.5 to 1
CC1(C)CC(Nc2nc(Nc3ccc(OC4CCN(CCO)CC4)c(F)c3)ncc2F)CC(C)(C)N1 [III-57, 2-(4-(2-fluoro-4-(5-fluoro-4-(2,2,6,6-tetramethylpiperidin-4-ylamino)pyrimidin-2-ylamino)phenoxy)piperidin-1-yl)ethanol] | > 1
CN1C(C)(C)CC(Nc2nc(Nc3ccc(OC4CCN(CCO)CC4)c(F)c3)ncc2F)CC1(C)C [III-58, 2-(4-(2-fluoro-4-(5-fluoro-4-(1,2,2,6,6-pentamethylpiperidin-4-ylamino)pyrimidin-2-ylamino)phenoxy)piperidin-1-yl)ethanol] | 0.5 to 1
CC1(C)CC(Nc2nc(Nc3cc(F)c(OC4CCN(CCO)CC4)c(F)c3)ncc2F)CC(C)(C)N1 [III-59, 2-(4-(2,6-difluoro-4-(5-fluoro-4-(2,2,6,6-tetramethylpiperidin-4-ylamino)pyrimidin-2-ylamino)phenoxy)piperidin-1-yl)ethanol] | > 1
CN1C(C)(C)CC(Nc2nc(Nc3cc(F)c(OC4CCN(CCO)CC4)c(F)c3)ncc2F)CC1(C)C [III-60, 2-(4-(2,6-difluoro-4-(5-fluoro-4-(1,2,2,6,6-pentamethylpiperidin-4-ylamino)pyrimidin-2-ylamino)phenoxy)piperidin-1-yl)ethanol] | 0.25 to 0.5
CC(C)Nc1cc(Nc2ncc(F)c(NC3CC(C)(C)NC(C)(C)C3)n2)ccc1OC(C)C [III-61, 5-fluoro-N2-(4-isopropoxy-3-(isopropylamino)phenyl)-N4-(2,2,6,6-tetramethylpiperidin-4-yl)pyrimidine-2,4-diamine] | > 1
CC(C)Nc1cc(Nc2ncc(F)c(NC3CC(C)(C)N(C)C(C)(C)C3)n2)ccc1OC(C)C [III-62, 5-fluoro-N2-(4-isopropoxy-3-(isopropylamino)phenyl)-N4-(1,2,2,6,6-pentamethylpiperidin-4-yl)pyrimidine-2,4-diamine] | > 1
Cc1ccc(Nc2ncc(F)c(NC3CC(C)(C)NC(C)(C)C3)n2)cc1-c1nnnn1C [III-63, 5-fluoro-N2-(4-methyl-3-(1-methyl-1H-tetrazol-5-yl)phenyl)-N4-(2,2,6,6-tetramethylpiperidin-4-yl)pyrimidine-2,4-diamine] | 0.25 to 0.5
Cc1ccc(Nc2ncc(F)c(NC3CC(C)(C)N(C)C(C)(C)C3)n2)cc1-c1nnnn1C [III-64, 5-fluoro-N2-(4-methyl-3-(1-methyl-1H-tetrazol-5-yl)phenyl)-N4-(1,2,2,6,6-pentamethylpiperidin-4-yl)pyrimidine-2,4-diamine] | < 0.25
CC(C)Oc1ccc(Nc2ncc(F)c(NC3CC(C)(C)NC(C)(C)C3)n2)cc1N(C)C(C)C [III-65, 5-fluoro-N2-(4-isopropoxy-3-(isopropyl(methyl)amino)phenyl)-N4-(2,2,6,6-tetramethylpiperidin-4-yl)pyrimidine-2,4-diamine] | > 1

From US9149475B2, “Protein kinase C inhibitors and uses thereof” (Rigel Pharmaceuticals, Inc., priority 2009, dated 2015)
